This is an account of results in patent US7829568B2, “Substituted 5,6,7,8-tetrahydroimidazo[1,2-a]pyridin-2-ylamine compounds and their use for producing drugs” (Gruenenthal GmbH, priority 2005, dated 2010).

T1 sequence (P35372 whole entry): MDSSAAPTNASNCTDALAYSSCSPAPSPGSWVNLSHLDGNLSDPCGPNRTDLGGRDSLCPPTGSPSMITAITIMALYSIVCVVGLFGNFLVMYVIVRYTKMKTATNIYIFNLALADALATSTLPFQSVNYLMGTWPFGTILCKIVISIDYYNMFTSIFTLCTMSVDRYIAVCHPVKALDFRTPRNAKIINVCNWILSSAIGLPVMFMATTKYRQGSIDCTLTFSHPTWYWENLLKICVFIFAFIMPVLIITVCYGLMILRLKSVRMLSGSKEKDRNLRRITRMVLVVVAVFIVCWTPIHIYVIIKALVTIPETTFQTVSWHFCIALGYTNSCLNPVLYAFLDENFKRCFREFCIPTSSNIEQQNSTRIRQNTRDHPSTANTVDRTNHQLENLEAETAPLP

The first assay addresses T1, human μ-opioid receptor (Homo sapiens, UniProt P35372).
T1 construct: purchased NEN, Zaventem, Belgium RB-HOM; host or cells: CHO-K1 cells (membrane preparation)
Kind of assay: Affinity to the human μ-opioid receptor ([3H]-naloxone displacement, SPA). Format: binding. The following applies: compound 1 μmol/l; 1 nmol/l [3H]-naloxone; CHO-K1 membrane preparation. The method, then: III. Method for Determining the Affinity to the Human μ-Opioid Receptor
The receptor affinity to the human μ-opioid receptor is determined in a homogeneous batch in microtitre plates. In this case, dilution series of the respective substituted 5,6,7,8-tetrahydro-imidazo[1,2-a]pyridin-2-ylamine compound of the general formula I to be tested are incubated with a receptor membrane preparation (15-40 μg of protein per 250 μl of the incubation batch) of CHO-K1 cells which express the human μ-opioid receptor (μ-opiate receptor) (RB-HOM receptor membrane preparation from NEN, Zaventem, Belgium) in the presence of 1 nmol/l of the radioactive ligands [^3H]-naloxone (NET719, NEN, Zaventem, Belgium) and also 1 mg of WGA SPA beads (wheat germ agglutinin SPA beads from Amersham Pharmacia, Freiburg, Germany) in a total volume of 250 μl at room temperature for 90 minutes. 50 mmol/l tris-HCl are used as an incubation buffer with 0.05% by weight of sodium azide and 0.06% by weight of bovine serum albumin. 25 μmol/l naloxone are also added to determine the non-specific bond. At the end of the 90 minute incubation period, the microtitre plates are centrifuged off for 20 minutes at 1000 g and the radioactivity is measured with a β-counter (Microbeta-Trilux, PerkinElmer Wallac, Freiburg, Germany. The percentage of displacement of the radioactive ligand from its bond to the human μ-opiate receptor at a concentration of 1 μmol/l of the compound to be tested is determined and indicated as a % inhibition of the specific bond.
For the molecule `CCCCN(C(=O)c1cccc(Cl)c1)c1nc2n(c1C(=O)NCCSCc1c(Cl)cccc1Cl)CCCC2` [Example 95, 2-[butyl-(3-chloro-benzoyl)-amino]-5,6,7,8-tetrahydro-imidazo[1,2-a]pyridine-3-carboxylic acid [2-(2,6-dichlor-benzylsulphanyl)-ethyl]-amide], the “μ-opioid receptor (man) (% inhibition)” value turned out to be 53%.

The same assay, now with this note: compound 1 μmol/l; 1 nmol/l [3H]-naloxone; CHO-K1 membrane preparation; read-out: μ-opioid receptor (man) (% inhibition).
Take `CN(C(=O)c1cccc2ccccc12)c1nc2n(c1C(=O)NCc1cc(C(F)(F)F)cc(C(F)(F)F)c1)CCCC2` [Example 15, 2-[Methyl-(naphthalene-1-carbonyl)-amino]-5,6,7,8-tetrahydro-imidazo[1,2-a]pyridine-3-carboxylic acid 3,5-bis-trifluoromethyl-benzylamide]: the inhibition at 1 µM turned out to be 35%. Still for that read-out and setting: as for `CN(C(=O)c1cccc(Cl)c1)c1nc2n(c1C(=O)N1CCN(CCc3ccccc3)CC1)CCCC2` [Example 106, 3-chloro-N-methyl-N-[3-(4-phenethyl-piperazine-1-carbonyl)-5,6,7,8-tetrahydro-imidazo[1,2-a]pyridin-2-yl]-benzamide], the figure is 30%. `CC(CCc1ccccc1)NC(=O)c1c(N(C)C(=O)c2cccc3ccccc23)nc2n1CCCC2` (centres unmarked) [Example 112, 2-[methyl-(naphthalene-1-carbonyl)-amino]-5,6,7,8-tetrahydro-imidazo[1,2-a]pyridine-3-carboxylic acid (1-methyl-3-phenyl-propyl)-amide]: the inhibition at 1 µM worked out at 51%. Same read-out and setting: as for `CCCCN(C(=O)c1ccc(F)c(F)c1)c1nc2n(c1C(=O)NCCC(c1ccccc1)c1ccccc1)CCCC2` [Example 180, 2-[butyl-(3,4-difluoro-benzoyl)-amino]-5,6,7,8-tetrahydro-imidazo[1,2-a]pyridine-3-carboxylic acid (3,3-diphenyl-propyl)-amide], the figure is 47%; as for `CCCCN(C(=O)c1cccc(Cl)c1)c1nc2n(c1C(=O)Nc1ccc3c(c1)OCCO3)CCCC2` [Example 181, 2-[butyl-(3-chloro-benzoyl)-amino]-5,6,7,8-tetrahydro-imidazo[1,2-a]pyridine-3-carboxylic acid (2,3-dihydro-benzo[1,4]dioxin-6-yl)-amide], 58%; as for `CN(C(=O)Cc1ccccc1)c1nc2n(c1C(=O)N1CCN(c3ccccc3)CC1)CCCC2` [Example 186, N-methyl-2-phenyl-N-[3-(4-phenyl-piperazine-1-carbonyl)-5,6,7,8-tetrahydro-imidazo[1,2-a]pyridin-2-yl]-acetamide], 48%. `Cc1cc(Cl)cc(Cl)c1CNC(=O)c1c(N(C)C(=O)c2ccccc2)nc2n1CCCC2` [Example 188, 2-(benzoyl-methyl-amino)-5,6,7,8-tetrahydro-imidazo[1,2-a]pyridine-3-carboxylic acid 2,4-dichloro-6-methyl-benzylamide]: the inhibition at 1 µM was determined as 59%.
